From patent US10294202B2, “Pyrrolidinones as herbicides” (FMC Corporation, priority 2013, dated 2019)

Key:
barnyardgrass [1] = experiment: Test A pre-/postemergence herbicide test; format: in vivo, Echinochloa crus-galli
In short: (§1)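 Planted in loam–sand blend; treated the same day preemergence by directed soil spray, while separately grown plants at one- to two-leaf stage got postemergence spray. Compared visually with untreated controls after approximately 10 days; 100 means complete control.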

crabgrass, large = experiment: Test A pre-/postemergence herbicide test; format: in vivo, Digitaria sanguinalis
In short: as §1

giant foxtail = experiment: Test A pre-/postemergence herbicide test; format: in vivo, Setaria faberii
In short: as §1

morningglory = experiment: Test A pre-/postemergence herbicide test; format: in vivo, Ipomoea spp.
In short: as §1

pigweed = experiment: Test A pre-/postemergence herbicide test; format: in vivo, Amaranthus retroflexus
In short: as §1

velvetleaf = experiment: Test A pre-/postemergence herbicide test; format: in vivo, Abutilon theophrasti
In short: as §1

wheat = experiment: Test A pre-/postemergence herbicide test; format: in vivo, Triticum aestivum
In short: as §1

corn = experiment: Test A pre-/postemergence herbicide test; format: in vivo, Zea mays
In short: as §1

rice = experiment: Test B flooded paddy test; format: in vivo, Oryza sativa; details: Flood, scale of 0 to 100 where 0 is no effect and 100 is complete control
In short: (§2)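 Scored visually 0–100 (0 no effect, 100 complete control) versus controls after 13 to 15 greenhouse days. Treatment: compound added to paddy water kept 3 cm above soil, on 2-leaf-stage plants.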

sedge, umbrella = experiment: Test B flooded paddy test; format: in vivo, Cyperus difformis; details: Flood, scale of 0 to 100 where 0 is no effect and 100 is complete control
In short: as §2

ducksalad = experiment: Test B flooded paddy test; format: in vivo, Heteranthera limosa; details: Flood, scale of 0 to 100 where 0 is no effect and 100 is complete control
In short: as §2

barnyardgrass [2] = experiment: Test B flooded paddy test; format: in vivo, Echinochloa crus-galli; details: Flood, scale of 0 to 100 where 0 is no effect and 100 is complete control
In short: as §2

[3] = Postemergence, 125 g ai/ha, 0 to 100 scale, 0 is no effect, 100 is complete control
[4] = Postemergence, 500 g ai/ha, 0 to 100 scale (0 no effect, 100 complete control)
[5] = Preemergence, 125 g ai/ha, 0 to 100 scale where 0 is no effect and 100 is complete control
[6] = preemergence, 500 g ai/ha, 0 to 100 scale, 0 is no effect and 100 is complete control
[7] = Postemergence, 125 g ai/ha, visual rating on 0 to 100 scale (0 no effect, 100 complete control), approx. 10 days
[8] = Postemergence, 125 g ai/ha, 0 to 100 scale, 0 no effect, 100 complete control
[9] = Preemergence, 125 g ai/ha, visual rating on 0 to 100 scale (0 no effect, 100 complete control)
[10] = preemergence, 500 g ai/ha, 0 to 100 scale (0 no effect, 100 complete control)
[11] = preemergence, 500 g ai/ha, 0 to 100 scale
[12] = Postemergence, 1000 g ai/ha, 0 to 100 scale (0 no effect, 100 complete control)
[13] = Preemergence, 1000 g ai/ha, visual rating on 0 to 100 scale (0 no effect, 100 complete control), approx. 10 days

## O=C1NCC(c2ccc(Cl)c(C(F)(F)F)c2)C1C(=O)Nc1ccccc1F (racemic) [Compound 267]
Barnyardgrass [1]; [3]
  Plant response rating, Barnyardgrass: 70
Barnyardgrass [1]; [4]
  Plant response rating, Barnyardgrass: 80
Barnyardgrass [1]; [5]
  Plant response rating, Barnyardgrass: 70
Barnyardgrass [1]; [6]
  Plant response rating, Barnyardgrass: 80
crabgrass, large; [3]
  Plant response rating, Crabgrass, Large: 80
crabgrass, large; [4]
  Plant response rating, Crabgrass, Large: 90
crabgrass, large; [5]
  Plant response rating, Crabgrass, Large: 90
crabgrass, large; [6]
  Plant response rating, Crabgrass, Large: 90
Giant foxtail; [3]
  Plant response rating, Foxtail, Giant: 70
Giant foxtail; [4]
  Plant response rating, Foxtail, Giant: 80
Giant foxtail; [5]
  Plant response rating, Foxtail, Giant: 80
Giant foxtail; [6]
  Plant response rating, Foxtail, Giant: 90
morningglory; [7]
  Plant response rating, Morningglory: 0
morningglory; [4]
  Plant response rating, Morningglory: 60
morningglory; [5]
  Plant response rating, Morningglory: 0
morningglory; [6]
  Plant response rating, Morningglory: 0
pigweed; [7]
  Plant response rating, Pigweed: 0
pigweed; [4]
  Plant response rating, Pigweed: 60
pigweed; [5]
  Plant response rating, Pigweed: 0
pigweed; [6]
  Plant response rating, Pigweed: 50
velvetleaf; [7]
  Plant response rating, Velvetleaf: 30
velvetleaf; [5]
  Plant response rating, Velvetleaf: 0
velvetleaf; [6]
  Plant response rating, Velvetleaf: 0
wheat; [7]
  Plant response rating, Wheat: 0
wheat; [4]
  Plant response rating, Wheat: 0
wheat; [5]
  Plant response rating, Wheat: 0
wheat; [6]
  Plant response rating, Wheat: 0
corn; [3]
  Plant response rating, Corn: 40
corn; [4]
  Plant response rating, Corn: 70
corn; [5]
  Plant response rating, Corn: 0
corn; [6]
  Plant response rating, Corn: 0
rice; 1000 g ai/ha
  Plant response rating, Rice: 15
sedge, umbrella; 1000 g ai/ha
  Plant response rating, Sedge, Umbrella: 0
ducksalad; 1000 g ai/ha
  Plant response rating, Ducksalad: 100
Barnyardgrass [2]; 1000 g ai/ha
  Plant response rating, Barnyardgrass: 20

## Cc1cccc(C2CN(C(=O)OC(C)(C)C)C(=O)C2C(=O)Nc2ccccc2F)c1 (centres unmarked) [Compound 37]
Barnyardgrass [1]; [8]
  Plant response rating, Barnyardgrass: 0
Barnyardgrass [1]; [4]
  Plant response rating, Barnyardgrass: 50
Barnyardgrass [1]; [9]
  Barnyardgrass plant response rating: 0
Barnyardgrass [1]; [10]
  Plant response rating, Barnyardgrass: 80
crabgrass, large; [8]
  Plant response rating, Crabgrass, Large: 0
crabgrass, large; [4]
  Plant response rating, Crabgrass, Large: 20
crabgrass, large; [9]
  Crabgrass, Large plant response rating: 0
crabgrass, large; [11]
  Plant response rating, Crabgrass, Large: 80
Giant foxtail; [8]
  Plant response rating, Foxtail, Giant: 0
Giant foxtail; [4]
  Plant response rating, Foxtail, Giant: 20
Giant foxtail; [9]
  Foxtail, Giant plant response rating: 0
Giant foxtail; [11]
  Plant response rating, Foxtail, Giant: 20
morningglory; [8]
  Plant response rating, Morningglory: 0
morningglory; [4]
  Plant response rating, Morningglory: 0
morningglory; [9]
  Morningglory plant response rating: 0
morningglory; [11]
  Plant response rating, Morningglory: 0
pigweed; [8]
  Plant response rating, Pigweed: 0
pigweed; [4]
  Plant response rating, Pigweed: 0
pigweed; [9]
  Pigweed plant response rating: 0
pigweed; [11]
  Plant response rating, Pigweed: 0
velvetleaf; [8]
  Plant response rating, Velvetleaf: 0
velvetleaf; [4]
  Plant response rating, Velvetleaf: 0
velvetleaf; [9]
  Velvetleaf plant response rating: 0
velvetleaf; [11]
  Plant response rating, Velvetleaf: 0
wheat; [8]
  Plant response rating, Wheat: 0
wheat; [4]
  Plant response rating, Wheat: 0
wheat; [9]
  Wheat plant response rating: 0
wheat; [11]
  Plant response rating, Wheat: 30
corn; [8]
  Plant response rating, Corn: 0
corn; [4]
  Plant response rating, Corn: 0
corn; [9]
  Corn plant response rating: 0
corn; [11]
  Plant response rating, Corn: 0
rice; 250 g ai/ha
  Plant response rating, Rice: 0
sedge, umbrella; 250 g ai/ha
  Plant response rating, Sedge, Umbrella: 20
ducksalad; 250 g ai/ha
  Plant response rating, Ducksalad: 0
Barnyardgrass [2]; 250 g ai/ha
  Plant response rating, Barnyardgrass: 0

## O=C1NCC(c2ccc(Cl)c(Cl)c2)C1C(=O)Nc1ccccc1[N+](=O)[O-] (centres unmarked) [Compound 39]
Barnyardgrass [1]; [12]
  Plant response rating, Barnyardgrass: 50
Barnyardgrass [1]; [13]
  Plant response rating, Barnyardgrass: 70
crabgrass, large; [12]
  Plant response rating, Crabgrass, Large: 80
crabgrass, large; [13]
  Plant response rating, Crabgrass, Large: 90
Giant foxtail; [12]
  Plant response rating, Foxtail, Giant: 70
Giant foxtail; [13]
  Plant response rating, Foxtail, Giant: 80
morningglory; [12]
  Plant response rating, Morningglory: 10
morningglory; [13]
  Plant response rating, Morningglory: 0
pigweed; [12]
  Plant response rating, Pigweed: 50
pigweed; [13]
  Plant response rating, Pigweed: 0
velvetleaf; [12]
  Plant response rating, Velvetleaf: 10
velvetleaf; [13]
  Plant response rating, Velvetleaf: 0
wheat; [12]
  Plant response rating, Wheat: 40
wheat; [13]
  Plant response rating, Wheat: 0
corn; [12]
  Plant response rating, Corn: 0
corn; [13]
  Plant response rating, Corn: 0
rice; 250 g ai/ha
  Plant response rating, Rice: 0
sedge, umbrella; 250 g ai/ha
  Plant response rating, Sedge, Umbrella: 0
ducksalad; 250 g ai/ha
  Plant response rating, Ducksalad: 0
Barnyardgrass [2]; 250 g ai/ha
  Plant response rating, Barnyardgrass: 0

## Cc1ccccc1NC(=O)C1C(=O)NCC1c1ccc(Cl)c(Cl)c1 (centres unmarked) [Compound 40]
Barnyardgrass [1]; [12]
  Plant response rating, Barnyardgrass: 80
Barnyardgrass [1]; [13]
  Plant response rating, Barnyardgrass: 90
crabgrass, large; [12]
  Plant response rating, Crabgrass, Large: 90
crabgrass, large; [13]
  Plant response rating, Crabgrass, Large: 90
Giant foxtail; [12]
  Plant response rating, Foxtail, Giant: 90
Giant foxtail; [13]
  Plant response rating, Foxtail, Giant: 90
morningglory; [12]
  Plant response rating, Morningglory: 10
morningglory; [13]
  Plant response rating, Morningglory: 0
pigweed; [12]
  Plant response rating, Pigweed: 0
pigweed; [13]
  Plant response rating, Pigweed: 0
velvetleaf; [12]
  Plant response rating, Velvetleaf: 0
velvetleaf; [13]
  Plant response rating, Velvetleaf: 0
wheat; [12]
  Plant response rating, Wheat: 20
wheat; [13]
  Plant response rating, Wheat: 20
corn; [12]
  Plant response rating, Corn: 20
corn; [13]
  Plant response rating, Corn: 30
rice; 250 g ai/ha
  Plant response rating, Rice: 0
sedge, umbrella; 250 g ai/ha
  Plant response rating, Sedge, Umbrella: 0
ducksalad; 250 g ai/ha
  Plant response rating, Ducksalad: 0
Barnyardgrass [2]; 250 g ai/ha
  Plant response rating, Barnyardgrass: 0

## O=C1NCC(c2ccc(Cl)nc2)C1C(=O)Nc1ccccc1F (centres unmarked) [Compound 41]
Barnyardgrass [1]; [8]
  Plant response rating, Barnyardgrass: 0
Barnyardgrass [1]; [4]
  Plant response rating, Barnyardgrass: 50
Barnyardgrass [1]; [9]
  Barnyardgrass plant response rating: 30
Barnyardgrass [1]; [10]
  Plant response rating, Barnyardgrass: 60
crabgrass, large; [8]
  Plant response rating, Crabgrass, Large: 30
crabgrass, large; [4]
  Plant response rating, Crabgrass, Large: 60
crabgrass, large; [9]
  Crabgrass, Large plant response rating: 60
crabgrass, large; [11]
  Plant response rating, Crabgrass, Large: 90
Giant foxtail; [8]
  Plant response rating, Foxtail, Giant: 0
Giant foxtail; [4]
  Plant response rating, Foxtail, Giant: 0
Giant foxtail; [9]
  Foxtail, Giant plant response rating: 10
Giant foxtail; [11]
  Plant response rating, Foxtail, Giant: 70
morningglory; [8]
  Plant response rating, Morningglory: 0
morningglory; [4]
  Plant response rating, Morningglory: 0
pigweed; [8]
  Plant response rating, Pigweed: 0
pigweed; [4]
  Plant response rating, Pigweed: 30
pigweed; [9]
  Pigweed plant response rating: 0
pigweed; [11]
  Plant response rating, Pigweed: 0
velvetleaf; [8]
  Plant response rating, Velvetleaf: 0
velvetleaf; [4]
  Plant response rating, Velvetleaf: 30
velvetleaf; [9]
  Velvetleaf plant response rating: 0
velvetleaf; [11]
  Plant response rating, Velvetleaf: 0
wheat; [8]
  Plant response rating, Wheat: 0
wheat; [4]
  Plant response rating, Wheat: 0
wheat; [9]
  Wheat plant response rating: 0
wheat; [11]
  Plant response rating, Wheat: 0
corn; [8]
  Plant response rating, Corn: 0
corn; [4]
  Plant response rating, Corn: 0
corn; [9]
  Corn plant response rating: 0
corn; [11]
  Plant response rating, Corn: 0
rice; 250 g ai/ha
  Plant response rating, Rice: 0
sedge, umbrella; 250 g ai/ha
  Plant response rating, Sedge, Umbrella: 20
ducksalad; 250 g ai/ha
  Plant response rating, Ducksalad: 70
Barnyardgrass [2]; 250 g ai/ha
  Plant response rating, Barnyardgrass: 0

## O=C1NCC(c2ccc(F)c(F)c2)C1C(=O)Nc1ccccn1 (centres unmarked) [Compound 45]
Barnyardgrass [1]; [8]
  Plant response rating, Barnyardgrass: 50
Barnyardgrass [1]; [4]
  Plant response rating, Barnyardgrass: 80
Barnyardgrass [1]; [9]
  Barnyardgrass plant response rating: 10
Barnyardgrass [1]; [10]
  Plant response rating, Barnyardgrass: 80
crabgrass, large; [8]
  Plant response rating, Crabgrass, Large: 60
crabgrass, large; [4]
  Plant response rating, Crabgrass, Large: 80
crabgrass, large; [9]
  Crabgrass, Large plant response rating: 80
crabgrass, large; [11]
  Plant response rating, Crabgrass, Large: 90
Giant foxtail; [8]
  Plant response rating, Foxtail, Giant: 20
Giant foxtail; [4]
  Plant response rating, Foxtail, Giant: 70
Giant foxtail; [9]
  Foxtail, Giant plant response rating: 50
Giant foxtail; [11]
  Plant response rating, Foxtail, Giant: 80
morningglory; [8]
  Plant response rating, Morningglory: 40
morningglory; [4]
  Plant response rating, Morningglory: 50
morningglory; [9]
  Morningglory plant response rating: 0
morningglory; [11]
  Plant response rating, Morningglory: 0
pigweed; [8]
  Plant response rating, Pigweed: 0
pigweed; [4]
  Plant response rating, Pigweed: 0
pigweed; [9]
  Pigweed plant response rating: 0
pigweed; [11]
  Plant response rating, Pigweed: 0
velvetleaf; [8]
  Plant response rating, Velvetleaf: 0
velvetleaf; [4]
  Plant response rating, Velvetleaf: 0
velvetleaf; [9]
  Velvetleaf plant response rating: 0
velvetleaf; [11]
  Plant response rating, Velvetleaf: 0
wheat; [8]
  Plant response rating, Wheat: 0
wheat; [4]
  Plant response rating, Wheat: 0
wheat; [9]
  Wheat plant response rating: 0
wheat; [11]
  Plant response rating, Wheat: 0
corn; [9]
  Corn plant response rating: 0
corn; [11]
  Plant response rating, Corn: 0
rice; 250 g ai/ha
  Plant response rating, Rice: 20
sedge, umbrella; 250 g ai/ha
  Plant response rating, Sedge, Umbrella: 40
ducksalad; 250 g ai/ha
  Plant response rating, Ducksalad: 80
Barnyardgrass [2]; 250 g ai/ha
  Plant response rating, Barnyardgrass: 0
